From patent publication US8815295B1, “Anti respiratory syncytial virus peptide functionalized gold nanoparticles” (Alabama State University, priority 2011, dated 2014)
Peptide text beside a SMILES is read from it.

Tested on: human epidermoid cancer (HEp-2) cells
Test: MTT cell viability (cytotoxicity) assay
Conditions: 24 and 48 hours, concentrations up to 50 μg/ml
Procedure: The peptides and carboxylated gold nanoparticles were tested for cytotoxic effects on human epidermoid cancer (HEp-2) cells. Cell viability was assessed by measuring cell concentration of a tetrazolium salt (3-(4,5 dimethyl-2-yl)-5-(3-carboxy-methoxyphenyl)-2-(4-sulfophenyl)-2H-tetrazolium) […]. If cells are viable the mitochondria will reduce the MTT. The cells were grown overnight in minimal essential medium (MEM) supplemented with L-glutamine, Penicillin, streptomycin, and kanamycin. 2.7×10^5 cells/well in 100 μl were seeded into 96-well plates in MEM. Cells were allowed to grow overnight in an incubator at 37° C., with a 5% CO2 humidified atmosphere, until the carboxylated gold nanoparticles were added. […] Treated cells were further incubated at 37° C., 5% CO2 for 24, and 48 hours. At the end of the corresponding incubation time, 15 μl of MTT dye was added into each well and the plates were allowed to incubate for the next 4 hours in the dark. The reaction was then stopped with 100 μl of stop solution. The absorbance of the media was measured at 570 nm on a TECAN Sunrise enzyme-linked immunosorbent assay plate reader (TECAN, US Inc., Durham, N.C., USA). Non-treated cells in growth media were used as a control.

Row | Compound | effect on cell viability
1 | CC[C@H](C)[C@H](NC(=O)[C@H](Cc1ccccc1)NC(=O)[C@H](C)NC(=O)[C@H](CC(C)C)NC(=O)[C@H](CO)NC(=O)[C@H](CCC(N)=O)NC(=O)[C@H](CC(N)=O)NC(=O)[C@@H](NC(=O)[C@H](CCCCN)NC(=O)[C@H](CCC(=O)O)NC(=O)[C@H](CC(N)=O)NC(=O)[C@@H](NC(=O)[C@H](CCC(N)=O)NC(=O)[C@H](CO)NC(=O)[C@@H](NC(=O)[C@@H](N)CO)[C@@H](C)CC)C(C)C)[C@@H](C)CC)C(=O)N[C@@H](CCCNC(=N)N)C(=O)N[C@@H](CCCCN)C(=O)N[C@@H](CO)C(=O)N[C@@H](CC(=O)O)C(=O)O [RF491] (H-SISQVNEKINQSLAFIRKSD-OH) | no significant effect
2 | VFPSDEFDASISQVNEKINQSLAFIRKSDLLHNVNAGKK (respiratory syncytial virus) [RF482] | no significant effect
